The subject of assay [1] is lipase (reference L3126 from Sigma). Description: Hydrolysis of ascorbyl palmitate by lipase with or without blue light radiation (palmitic acid released). The format is biochemical. To be noted: for Test - Control % of variation versus control: light 400-510 nm vs no light; for Test (in ppm palmitic acid released in reaction medium) / Control (in ppm palmitic acid released in reaction medium): lipase + ascorbyl palmitate; for Test (in ppm palmitic acid released in reaction medium): light 400-510 nm; for Control (in ppm palmitic acid released in reaction medium): no light exposure. The method, then:
The lipase (reference L3126 from Sigma) is exposed with stirring to a light radiation with a predominant wavelength of 400-510 nm (FIG. 2: spectrum of blue light used, intensity 0.5 mW/cm^2) in the presence of ethyl lactate (from Sigma or Fluka) according to the set-up described in FIG. 1. The same protocol as that described in Example 1 is carried out, with the replacement of ethyl lactate by ascorbyl palmitate. In the presence of lipase, the ascorbyl palmitate hydrolyses to give palmitic acid and ascorbic acid. The lipase is exposed with stirring to the said radiation with a predominant wavelength ranging from 400 to 510 nm (blue spectrum) in the presence of ascorbyl palmitate. An increase in the hydrolysis proportional to the time of exposure of the lipase to the said radiation is found, as presented in the following table: […]

Assay [2] shares this test system. Put plainly: Hydrolysis of ethyl lactate by lipase with or without blue light radiation (lactic acid formed is determined). The assay is classed as biochemical. Conditions: for Test - Control % of variation versus control: light 400-510 nm vs no light; for Test (ppm lactic acid in reaction medium) / Control (ppm lactic acid in reaction medium): lipase + ethyl lactate; for Test (ppm lactic acid in reaction medium): light 400-510 nm; for Control (ppm lactic acid in reaction medium): no light exposure. From the text:
In the presence of lipase, ethyl lactate is hydrolysed to give L-lactate (which reacts with water to give lactic acid) and ethanol. The lactic acid thus formed is quantitatively determined.
The lipase (reference L3126 from Sigma) is exposed with stirring to a light radiation with a predominant wavelength of 400-510 nm (FIG. 2: spectrum of blue light used, intensity 0.5 mW/cm^2) in the presence of ethyl lactate (from Sigma or Fluka) according to the set-up described in FIG. 1.
The control corresponds to bringing together the lipase and the ethyl lactate under the same conditions, without exposure to the said light radiation. An increase in the hydrolysis of the ethyl lactate, with respect to the control, is found.

Molecules are shown by their SMILES.

Turning to `CCCCCCCCCCCCCCCC(=O)OC[C@H](O)[C@H]1OC(=O)C(O)=C1O` [ascorbyl palmitate], the “Test - Control % of variation versus control” value in assay [1] (reaction time 20 min) is listed as 1.71%; in assay [1] (reaction time 40 min), 2.95%; in assay [1] (reaction time 60 min), 9.92%; in assay [1] (reaction time 90 min) it was 11.72%. In addition, the “Test (in ppm palmitic acid released in reaction medium)” value in assay [1] (reaction time 20 min) was found to be 63.96 ppm; in assay [1] (reaction time 40 min), 77.15 ppm; in assay [1] (reaction time 60 min), 98.99 ppm; in assay [1] (reaction time 90 min), 119.51 ppm. Also, the “Control (in ppm palmitic acid released in reaction medium)” value in assay [1] (reaction time 20 min) came out at 62.89 ppm; in assay [1] (reaction time 40 min), 74.87 ppm; in assay [1] (reaction time 60 min) it was 89.16 ppm; in assay [1] (reaction time 90 min), 105.5 ppm.
On to `CCOC(=O)C(C)O` (stereo not drawn) [ethyl lactate], for which the “Test - Control % of variation versus control” value in assay [2] (reaction time 20 min) is 5.16%; in assay [2] (reaction time 40 min), 9.08%; in assay [2] (reaction time 90 min), 17.94%. Also, the “Test (ppm lactic acid in reaction medium)” value stood at 0.48 ppm in assay [2] (0.5 mW/cm^2, reaction time 20 min); 0.69 ppm in assay [2] (0.5 mW/cm^2, reaction time 40 min); 0.84 ppm in assay [2] (0.5 mW/cm^2, reaction time 90 min). Besides, the “Control (ppm lactic acid in reaction medium)” value in assay [2] (reaction time 20 min) stood at 0.45 ppm; in assay [2] (reaction time 40 min) it was 0.62 ppm; in assay [2] (reaction time 90 min), 0.69 ppm.

These data come from patent US20110130704A1, “COMBINATION OF A LIGHT RAY AND A LIPASE-BIOCONVERTIBLE COMPOUND FOR IMPROVING SKIN AND/OR HAIR APPEARANCE” (L'OREAL, priority 2008, published 2011).
